# From US5750362A, “Methods for identifying substances with a potential herbicidal or growth-regulating action by means of plant transporter proteins, the use of the transporter proteins, and substances with a herbicidal and growth-regulating action” (BASF Aktiengesellschaft, priority 1993, dated 1998)
# Read-outs that look alike come from different tables or passages of the source.
# Columns and labels:
# [1] = target: T1, sucrose transporter S21 (SoSUT1) (Spinacia oleracea, UniProt Q03411); assay: [14C]-sucrose uptake by yeast strain SUSY7 expressing the spinach sucrose transporter; format: cell-based; conditions: for remaining activity at 1000 µM: tested substance 1.0 mmol/l
# T1 construct: expressed in transfected cells; host or cells: Saccharomyces cerevisiae SUSY7
# T1 sequence (Q03411 1-525): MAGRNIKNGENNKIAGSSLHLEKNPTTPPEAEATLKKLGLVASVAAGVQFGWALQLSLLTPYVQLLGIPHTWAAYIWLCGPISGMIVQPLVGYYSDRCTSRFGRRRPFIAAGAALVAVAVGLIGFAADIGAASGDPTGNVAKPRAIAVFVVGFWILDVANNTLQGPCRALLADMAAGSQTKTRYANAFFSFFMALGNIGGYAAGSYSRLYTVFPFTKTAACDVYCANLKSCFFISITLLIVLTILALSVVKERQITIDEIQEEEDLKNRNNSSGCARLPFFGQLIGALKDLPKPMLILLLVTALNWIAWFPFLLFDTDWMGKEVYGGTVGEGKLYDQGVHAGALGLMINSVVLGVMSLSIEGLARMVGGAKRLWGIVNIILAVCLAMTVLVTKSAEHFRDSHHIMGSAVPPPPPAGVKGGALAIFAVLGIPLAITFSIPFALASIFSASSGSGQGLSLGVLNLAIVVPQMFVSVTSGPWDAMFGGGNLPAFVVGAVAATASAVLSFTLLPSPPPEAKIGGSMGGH
# Procedure: Yeast cells of the strain SUSY7 (Riesmeier et al., 1992, EMBO J. 11: 4705-4713) are used to identify substances which have an inhibitory effect on sucrose transporters from spinach. Cells of this strain are transformed with a cDNA sequence which codes for the sucrose transporter S21 (SoSUT1) from spinach and which ensures expression of a functional transporter in the cells. The yeast cells are cultured in minimal medium (SD+2% (w/v) sucrose, pH 3.8) at 28° C. and harvested in the logarithmic phase (OD600 =0.6). The cells are spun down at 4000 rpm for 10 minutes and washed twice with SD medium. A cell concentration of c=50 g/l in SD medium is adjusted according to the wet weight of the cells, and 200 μl aliquot fractions are taken. Before the actual reaction, the cells are incubated in 10 mM glucose for 5 min and adjusted to pH 3.8 with MES buffer. The reaction is started by adding 200 μl of a 0.2 mmol/l [14C]-sucrose solution (3 mCi/mmol) in SD medium (pH 3.8). After 20, 60, 120, 180 and 240 seconds, 70 μl portions of the suspension are removed and pipetted into 4 ml of ice-cold water in order to stop the reaction. The cells are filtered off on glass fiber filters and washed twice with ice-cold water. The radioactivity on the filters is subsequently determined in a liquid scintillation counter. The substances to be tested are added 30 seconds before addition of the sucrose. The uptake of radiolabeled sucrose without addition of a potential inhibitor is determined as one control. Cells of the strain SUSY7 which are not transformed with cDNA sequences coding for a sucrose transporter from spinach are employed as further control.
# The various tested substances, their concentration and the activity of the transporter, shown as percentage activity of the control in which no potential inhibitors were added, are indicated. Substances which specifically show an inhibitory effect on the sucrose transporter S21 (SoSUT1), are tested for their herbicidal and growth-regulating effect on whole plants.
# [2] = tested on: sucrose transporter P62 (StSUT1); assay: Activation of sucrose transport by preincubation of the yeast cells; format: cell-based, Solanum tuberosum
# Procedure: The transport of sucrose by the sucrose transporter P62 (StSUT1) from Solanum tuberosum can be increased by previous energizing of the yeast cells by incubation in glucose, stachyose and adenine. The same increase in transport activity is achieved by reducing the pH to pH 3.8 in the measurement. The measurement of transport to determine the activation takes place as described in Example 3 but the cells are incubated before the actual measurement not in 10 mM glucose for 5 min but in solutions of various concentrations of glucose, stachyose and adenine for 5 min. Yeast cells which are not incubated in solutions of these substances before the measurement act as control. The following table indicates the extent of activation of sucrose transport with various concentrations of glucose, stachyose and adenine compared with the control.
# [3] = target: T2, ammonium transporter AMT1 (Arabidopsis thaliana, UniProt P54144); assay: cell-based
# T2 construct: expressed in transfected cells; host or cells: Saccharomyces cerevisiae 26972c (mutations in MEP1 and MEP2)
# T2 sequence (P54144 1-501): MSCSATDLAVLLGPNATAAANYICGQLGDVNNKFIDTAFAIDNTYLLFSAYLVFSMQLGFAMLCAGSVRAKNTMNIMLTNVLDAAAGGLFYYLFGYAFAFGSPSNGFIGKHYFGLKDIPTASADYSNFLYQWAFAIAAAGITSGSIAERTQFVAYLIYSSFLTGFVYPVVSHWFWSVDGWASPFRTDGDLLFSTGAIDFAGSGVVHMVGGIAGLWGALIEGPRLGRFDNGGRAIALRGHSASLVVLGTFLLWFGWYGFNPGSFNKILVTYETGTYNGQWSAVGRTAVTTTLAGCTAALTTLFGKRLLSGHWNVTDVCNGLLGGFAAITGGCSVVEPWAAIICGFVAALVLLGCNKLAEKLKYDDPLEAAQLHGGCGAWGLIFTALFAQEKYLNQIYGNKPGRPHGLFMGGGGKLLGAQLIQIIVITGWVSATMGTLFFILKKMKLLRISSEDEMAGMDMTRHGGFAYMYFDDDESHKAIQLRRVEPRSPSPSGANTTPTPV
# Procedure: The measurements of transport identify inhibitors of plant ammonium transporters are carried out with the structural analog methylamine because radiolabeled ammonium is not commercially obtainable.
# The yeast cells are transformed by standard methods with cDNA sequences which code for an ammonium transporter from plants and which permit expression of a functional transporter in the yeast cells. […] The cells are cultured in NAAG-medium (2% glucose, 1.7 g/l yeast nitrogen-base w/o amino acids and ammonium sulfate (Difco), supplemented with 500 μg/ml L-proline) at 28 degrees Celsius, and harvested in the logarithmic phase (OD660.=0.6). The cells are then spun down in a centrifuge at 4000 rpm and 4 degrees Celsius for 10 minutes, washed twice with 20 mM sodium phosphate buffer, pH 7, and taken up in the same buffer to an 0D660 of 8. 200 μl aliquot fractions of the cell suspension are taken. 5 minutes before the actual measurement,the yeasts are activated by addition of 100 mM glucose and incubated at 30 degrees Celsius. To start the reaction, 100 μl of the cell suspension are added to 100 µl of reaction mixture (20 mM Na phosphate buffer, pH7; 18.5 kBq of [^14 C]-methylamine (NEN); 100 M methylamine; substance to be tested depending on the experiment (see FIG. 4)). In each case 10, 60, 120 and 180 seconds after starting the reaction, 50 μl aliquots are taken, added to 4 ml of ice-cold 5 mM methylamine solution and filtered on glass fibre filters. After the filters have been washed with a further 8 ml of a methylamine solution, the radioactivity on the filters is subsequently determined in a liquid scintillation counter. Inhibitors are added 60 seconds before adding the glucose.
# The uptake of radiolabeled methylamine without addition of a potential inhibitor is determined as one control.
# [4] = target: T3, sucrose transporter P62 (StSUT1) (Solanum tuberosum, UniProt Q43653); assay: [14C]-sucrose uptake by yeast strain SUSY-7-P62 (StSUT1) expressing the potato sucrose transporter; format: cell-based; conditions: [14C]-sucrose uptake, pH 3.8
# T3 construct: whole-cell [14C]-sucrose uptake; no tag or borders given
# T3 sequence (Q43653 1-516): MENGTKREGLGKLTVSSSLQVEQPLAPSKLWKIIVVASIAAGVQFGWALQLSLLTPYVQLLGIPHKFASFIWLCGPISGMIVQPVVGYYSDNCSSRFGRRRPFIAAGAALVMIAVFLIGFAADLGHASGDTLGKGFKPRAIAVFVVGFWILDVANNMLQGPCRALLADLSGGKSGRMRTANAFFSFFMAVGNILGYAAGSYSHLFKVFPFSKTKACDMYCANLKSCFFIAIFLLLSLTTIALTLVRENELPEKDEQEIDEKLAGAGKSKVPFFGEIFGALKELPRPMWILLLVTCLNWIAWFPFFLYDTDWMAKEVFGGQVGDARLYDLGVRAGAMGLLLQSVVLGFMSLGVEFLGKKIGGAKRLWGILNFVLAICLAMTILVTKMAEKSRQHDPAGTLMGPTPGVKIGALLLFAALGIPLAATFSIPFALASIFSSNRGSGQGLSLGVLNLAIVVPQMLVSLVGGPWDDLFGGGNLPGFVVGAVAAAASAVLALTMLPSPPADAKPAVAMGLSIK
# Text: Yeast cells of the strain SUSY7 (Riesmeier et al., 1992, EMBO J. 11: 4705-4713) are used to identify substances which have an inhibitory effect on sucrose transporters from potato. Cells of this strain are transformed with a cDNA sequence which codes for the sucrose transporter P62 (StSUT1) from potato (WO 94/00574, Riesmeier et al., 1993, Plant Cell 5:1591-1598) and which ensures expression of a functional transporter in the cells. The resulting yeast strain was called SUSY-7-P62 (StSUT1). The yeast cells are cultured in minimal medium (SD +2% (w/v) sucrose, pH 3.8) at 28° C. and harvested in the logarithmic phase (OD600 =0.6). The cells are spun down at 4000 rpm for 10 minutes and washed twice with SD medium. A cell concentration of c=50 g/l in SD medium is adjusted according to the wet weight of the cells, and 200 Al aliquot fractions are taken. Before the actual reaction, the cells are incubated in 10 mM glucose for 5 min and adjusted to pH 3.8 with MES buffer. The reaction is started by adding 200 Al of a 0.2 mmol/l [14C]-sucrose solution (3 mCi/mmol) in SD medium (pH 3.8). After 20, 60, 120, 180 and 240 seconds, 70 μl portions of the suspension are removed and pipetted into 4 ml of ice-cold water in order to stop the reaction. The cells are filtered off on glass fiber filters and washed twice with ice-cold water. The radioactivity on the filters is subsequently determined in a liquid scintillation counter. The substances to be tested are added 30 seconds before addition of the sucrose. The uptake of radiolabeled sucrose without addition of a potential inhibitor is determined as one control. Cells of the strain SUSY7 which are not transformed with cDNA sequences coding for a sucrose transporter from potato are employed as further control.
# The various tested substances, their concentration and the activity of the transporter, shown as percentage activity of the control in which no potential inhibitors were added, are indicated.
# [5] = [14C]-sucrose uptake, pH 3.8, read-out: Activity relative to the control [%]
# [6] = sucrose transport after 5 min preincubation with the substance at c1 [0.2 mol/l], 200000 µM
# [7] = sucrose transport after 5 min preincubation with the substance at c2 [2 mmol/l]
# [8] = [14C]-sucrose uptake, pH 3.8, tested substance 2 mM, read-out: Activity relative to the control [%]
# [9] = [14C]-methylamine uptake, tested substance 500 μM
# [10] = pH 7, read-out: Activity relative to the control [%]
# [11] = pH 7, [14C]-methylamine uptake, tested substance 500 μM, read-out: Activity relative to the control [%]
# [12] = pH 3.8, read-out: Activity relative to the control [%]
# [13] = tested substance 2 mM, read-out: Activity relative to the control [%]
# [14] = [14C]-sucrose uptake, pH 3.8, tested substance 2 mM
compound,measurement,setting,value
NC1CC(CO)C(O)C1O (centres unmarked),remaining activity at 1000 µM,[1]; [5],0%
Nc1ncnc2c1ncn2C1CC=CC1CO (centres unmarked),remaining activity at 1000 µM,[1]; [5],0%
Nc1ncnc2nc[nH]c12 [Adenine],Effect on sucrose transport as a function of concentration,"[2]; preincubation of yeast cells, result in words",linear relation between the adenine concentration and the increase in the sucrose transport rate
same,Activity relative to the control [%],[2]; [6],141 ± 5%
same,Activity relative to the control [%],[2]; [7],225 ± 6%
OC[C@H]1O[C@@H](O[C@H]2[C@H](O)[C@@H](O)C(O)O[C@@H]2CO)[C@H](O)[C@@H](O)[C@@H]1O (some centres unmarked) [Cellobiose],remaining activity at 2000 µM,[1]; [8],99.4%
[Cl-].[Cs+] [CsCl],Activity relative to the control [%],[3]; [9],98%
C[C@@H]1C[C@@H]([C@H](O)CC2CC(=O)NC(=O)C2)C(=O)[C@@H](C)C1 [Cycloheximide],remaining activity at 10 µg/mL,[3]; [10],85%
C(=NC1CCCCC1)=NC1CCCCC1 [DCCD],remaining activity at 200 µM,"[3]; pH 7, [14C]-methylamine uptake, tested substance 200 μM, read-out: Activity relative to the control [%]",15%
CNC [Dimethylamine],remaining activity at 500 µM,[3]; [10],89%
CCN [Ethylamine],remaining activity at 500 µM,[3]; [11],93%
OC[C@H]1OC(O)[C@H](O)[C@@H](O)[C@H]1O (some centres unmarked) [Galactose],remaining activity at 2000 µM,[1]; [12],97.7%
OC[C@H]1OC(O)[C@H](O)[C@@H](O)[C@@H]1O (some centres unmarked) [Glucose],Activity relative to the control [%],[2]; [6],89 ± 5%
same,Activity relative to the control [%],[2]; [7],90 ± 3%
[Cl-].[K+] [KCl],Activity relative to the control [%],[3]; [9],98%
OC[C@H]1OC(O)[C@@H](O)[C@@H](O)[C@@H]1O (some centres unmarked) [Mannose],remaining activity at 2000 µM,[1]; [12],86.5%
OC[C@H]1O[C@H](OC[C@H]2OC(O)[C@H](O)[C@@H](O)[C@@H]2O)[C@H](O)[C@@H](O)[C@H]1O (some centres unmarked) [Melibiose],remaining activity at 2000 µM,[1]; [8],92.3%
OC[C@H]1O[C@@](CO)(O[C@H]2O[C@H](CO)[C@@H](O)[C@H](O)[C@H]2O)[C@@H](O[C@H]2O[C@H](CO)[C@@H](O)[C@H](O)[C@H]2O)[C@@H]1O [Melizitose],remaining activity at 2000 µM,[1]; [8],97.2%
CCN1C(=O)C=CC1=O [N-Ethylmaleimide],remaining activity at 1000 µM,"[4]; tested substance 1 mM, read-out: Activity relative to the control [%]",22%
Cl.N [NH4 Cl],Activity relative to the control [%],[3]; [9],10%
O=C(CO)[C@@H](O)[C@H](O)[C@H](O)CO[C@H]1O[C@H](CO)[C@@H](O)[C@H](O)[C@H]1O [Palatinose],remaining activity at 2000 µM,[4]; [13],102%
same,remaining activity at 2000 µM,[1]; [8],85%
OC[C@H]1O[C@H](OC[C@H]2O[C@H](O[C@]3(CO)O[C@H](CO)[C@@H](O)[C@@H]3O)[C@H](O)[C@@H](O)[C@@H]2O)[C@H](O)[C@@H](O)[C@H]1O [Raffinose],remaining activity at 2000 µM,[4]; [13],110%
same,remaining activity at 2000 µM,[1]; [8],110%
[Cl-].[Rb+] [RbCl],Activity relative to the control [%],[3]; [9],96%
O=C(CO)[C@@H](O)[C@@H](O)[C@H](O)CO [Tagatose],remaining activity at 2000 µM,[4]; [13],103%
same,remaining activity at 2000 µM,[1]; [8],105%
CN(C)C [Trimethylamine],remaining activity at 500 µM,[3]; [11],89%
OC[C@H]1O[C@@H](O[C@H]2[C@H](O)[C@@H](O)[C@@H](O)O[C@@H]2CO)[C@H](O)[C@@H](O)[C@H]1O [α-Lactose],remaining activity at 2000 µM,[1]; [8],81.8%
OC[C@H]1O[C@H](Oc2ccccc2)[C@H](O)[C@@H](O)[C@@H]1O [α-Phenylglucose],Activity relative to the control [%],[4]; tested substance 2 mM,7%
same,Activity relative to the control [%],[1]; [14],8.0%
OC[C@H]1O[C@@H](O[C@H]2[C@H](O)[C@@H](O)[C@H](O)O[C@@H]2CO)[C@H](O)[C@@H](O)[C@H]1O [β-Lactose],remaining activity at 2000 µM,[4]; [13],91%
same,remaining activity at 2000 µM,[1]; [8],94.9%
Altrose,Activity relative to the control [%],[1]; [14],80.6%
Antimycin A,Activity relative to the control [%],"[3]; [14C]-methylamine uptake, tested substance 10 μg/ml",8%
